Results taken from patent US8828992B2, “Substituted azole derivatives, pharmaceutical composition containing the derivatives, and method for treating Parkinson's disease using the same” (priority 2009, dated 2014).
Read-outs that look alike come from different tables or passages of the source.

Columns and labels:
[1] = system: dopamine (DA) in the striatum of a MPTP-treated mouse; test: Combined administration with Levodopa group: dopamine in the striatum of MPTP-treated mouse (HPLC); type: in vivo; conditions: compound 1 mg/kg PO co-administered with Levodopa group (Levodopa 50 mg/kg + Benzerazide 25 mg/kg IP); for Concentration of dopamine compared to a control group %, 1 hr: 1 hr after Levodopa; for Concentration of dopamine compared to a control group %, 3 hr: 3 hr after Levodopa
Procedure: MPTP (20 mg/kg, free base; Sigma, St. louis, Mo.) was administered to an 8 week old (20-25 g) male C57BL/6 test mouse intraperitoneally at the interval of 2 hours to construct a model.
In order to observe the effects of combined administration of a compound of the present invention and Levodopa, the compound of the present invention was dissolved in a solution containing 0.02 ml of dimethylsulfoxide (DMSO), 0.02 ml of Cremophor, 0.08 ml of polyethyleneglycol (PEG), and 0.08 ml of physiological saline. The resulting solution was orally administered at doses of 1 mg/kg one week after the MPTP treatment, and a Levodopa group containing Levodopa at 50 mg/kg and Benzerazide at 25 mg/kg was intraperitoneally administered 1 hour later.
A single administration of the Levodopa group in the following Table 4 indicates values resulting from a MPTP (toxin) treatment followed by an administration of the Levodopa group compared to the treatment results of a Levodopa single administration group of Levodopa and Benzerazide.
At 1 hour and 3 hours after administration of Levodopa, the animals were sacrificed by cervical vertebra dislocation and the brain tissues were immediately isolated from the animals. 0.5 me of iced solution for HPLC analysis (0.1 M perchloric acid and 0.1 mM EDTA) was added to a striatum obtained from the isolated brain tissues, and an ultrasonic grinder was used to prepare a tissue homogenate. The tissue homogenate was centrifuged at 12,000 rpm for 15 minutes, and its supernatant was filtered through nitrocellulose membrane filter (0.2 um, Millipore). For HPLC analysis, uBondapak™ C18 column (4.6×150 mm, particle size 10 μm: Shisheido, Japan) was used, the flow rate of the mobile phase (0.07 M monobasic sodium phosphate, 1 mM sodium octasulfonic acid, 0.1 uM EDTA, 5% acetonitrile, pH 3.2) was maintained at 0.5 me/min, and the electrode potential of the electrochemical detector (CouloChem III, ESA, Japan) was set at 350 mV.

[2] = biological target: T1, Monoamineoxidase B type human-derived enzyme (Homo sapiens, UniProt P27338); test: Inhibitory effects on the activity of MAO-B (Amplex Red fluorescence, benzylamine substrate); type: biochemical; conditions: for inhibition at 0.01 µM: read-out: Inhibitory effects (%) on the activity of MAO-B
T1 sequence (P27338 1-520): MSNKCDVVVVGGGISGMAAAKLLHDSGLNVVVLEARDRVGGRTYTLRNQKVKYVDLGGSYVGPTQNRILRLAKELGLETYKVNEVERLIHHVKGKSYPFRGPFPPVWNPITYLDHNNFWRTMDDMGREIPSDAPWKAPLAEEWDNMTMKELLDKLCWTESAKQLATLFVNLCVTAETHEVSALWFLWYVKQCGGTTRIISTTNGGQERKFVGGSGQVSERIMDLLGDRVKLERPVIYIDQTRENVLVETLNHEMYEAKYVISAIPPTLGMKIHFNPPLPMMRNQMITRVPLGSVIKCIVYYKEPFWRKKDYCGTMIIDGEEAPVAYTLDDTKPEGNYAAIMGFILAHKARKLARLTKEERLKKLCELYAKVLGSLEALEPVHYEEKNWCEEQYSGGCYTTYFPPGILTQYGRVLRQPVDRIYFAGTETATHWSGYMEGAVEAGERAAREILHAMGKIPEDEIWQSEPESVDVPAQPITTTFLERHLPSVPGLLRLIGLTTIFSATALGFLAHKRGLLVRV
Procedure: Monoamineoxidase A or B type human-derived enzyme (5 mg/ml) was each diluted with 0.05 M sodium phosphate buffer (pH 7.4) to yield a dilution of 1:200, and then 100 μl of an enzyme buffer containing 2 μl of a compound 1 solution at the corresponding concentration was placed in a test plate (flat-bottom) and incubated for 30 minutes.
100 μl of a working buffer containing 400 μM of Amplex Red reagent, 2 U/ml horseradish peroxidase, and 2 mM substrate (tyramine for MAO-A and benzylamine for MAO-B) in 0.05 M sodium phosphate buffer (pH 7.4) was mixed with a pre-incubated enzyme buffer at 1:1 and measured using fluorescence (EX: 563 nm & EM: 587 nm) for 30 minutes.

| Molecule | inhibition at 0.01 µM ([2]; treatment concentration 10 nM) | further results |
| --- | --- | --- |
| NC(=O)NCc1cc(-c2ccc(OCc3ccccc3)cc2)no1 [Example 152, [3-(4-benzyloxy-phenyl)-isoxazol-5-ylmethyl]-urea] | 96.1% | Concentration of dopamine compared to a control group %, 1 hr [1]: 87.0%; Concentration of dopamine compared to a control group %, 3 hr [1]: 77.0% |
| NCCCNC(=O)OCc1cc(-c2ccc(OCc3ccccc3)cc2)no1 [Example 130, (3-amino-propyl)-carbamic acid 3-(4-benzyloxy-phenyl)-isoxazol-5-ylmethyl ester] | 52.9% | Concentration of dopamine compared to a control group %, 1 hr [1]: 131.9%; Concentration of dopamine compared to a control group %, 3 hr [1]: 77.0% |
| O=C(OCc1cc(-c2ccc(OCc3ccccc3)cc2)no1)n1ccnc1 [Example 120, Imidazole-1-carboxylic acid 3-(4-benzyloxy-phenyl)-isoxazol-5-ylmethyl ester] | 87.8% | Concentration of dopamine compared to a control group %, 1 hr [1]: 148.5%; Concentration of dopamine compared to a control group %, 3 hr [1]: 53.9% |
| NC(=O)CNCc1cc(-c2ccc(OCc3ccccc3)cc2)no1 [Example 162, 2-{[3-(4-benzyloxy-phenyl)-isoxazol-5-ylmethyl]-amino}-acetamide] | 66.1% | Concentration of dopamine compared to a control group %, 1 hr [1]: 148.3%; Concentration of dopamine compared to a control group %, 3 hr [1]: 100.1% |
| NC(=O)OCc1nc(-c2ccc(OCc3ccccc3)cc2)no1 [Example 2, carbamic acid 3-(4-benzyloxy-phenyl)-[1,2,4]oxadiazol-5-ylmethyl ester] |  | Concentration of dopamine compared to a control group %, 1 hr [1]: 106.12%; Concentration of dopamine compared to a control group %, 3 hr [1]: 43.6%; inhibition at 0.01 µM [2]: 95% |
| NC(=O)OCc1cc(-c2ccc(OCCCCO)cc2)no1 [Example 57, carbamic acid 3-[4-(4-hydroxy-butoxy)-phenyl]-isoxazol-5-ylmethyl ester] |  | inhibition at 0.01 µM [2]: 25% |
| CN(C)Cc1cc(-c2ccc(OCc3ccccc3)cc2)no1 [Example 150, [3-(4-benzyloxy-phenyl)-isoxazol-5-ylmethyl]-dimethyl-amine] | 97.4% |  |
| NC(=O)OCc1cc(-c2ccc(OCc3cccc(F)c3F)cc2)no1 [Example 15, carbamic acid 3-[4-(2,3-difluoro-benzyloxy)-phenyl]-isoxazol-5-ylmethyl ester] | 96.2% |  |
| COC(=O)c1ccc(COc2ccc(-c3cc(COC(N)=O)on3)cc2)o1 [Example 73, 5-[4-(5-carbamoyloxymethyl-isoxazol-3-yl)-phenoxymethyl]-furan-2-carboxylic acid methyl ester] | 58.1% |  |
| O=C(OCc1cc(-c2ccc(OCc3ccccc3)cc2)no1)N1CCOCC1 [Example 127, morpholine-4-carboxylic acid 3-(4-benzyloxy-phenyl)-isoxazol-5-ylmethyl ester] | 45.3% | Concentration of dopamine compared to a control group %, 1 hr [1]: 140.7%; Concentration of dopamine compared to a control group %, 3 hr [1]: 60.4% |
| NC(=O)OCc1nc(-c2ccc(OCc3ccccc3)cc2)ns1 [Example 4, carbamic acid 3-(4-benzyloxy-phenyl)-[1,2,4]thiadiazol-5-ylmethyl ester] |  | inhibition at 0.01 µM [2]: 92% |
| C=CCNCc1cc(-c2ccc(OCc3ccccc3)cc2)no1 [Example 176, Allyl-[3-(4-benzyloxy-phenyl)-isoxazol-5-ylmethyl]-amine] | 71.5% |  |
| NC(=O)OCc1cc(-c2ccc(OCc3c(F)cccc3Cl)cc2)no1 [Example 199, Carbamic acid 3-[4-(2-chloro-6-fluorobenzyloxy)-phenyl]-isoxazol-5-ylmethyl ester] | 83.2% |  |
| NC(=O)OCc1cc(-c2ccc(OCc3cc(Cl)ccc3Cl)cc2)no1 [Example 24, carbamic acid 3-[4-(2,5-di-chloro-benzyloxy)-phenyl]-isoxazol-5-ylmethyl ester] | 83.3% |  |
| NC(=O)OCc1cc(-c2ccc(NCc3cccc(Cl)c3Cl)cc2)no1 [Example 88, carbamic acid 3-[4-(2,3-dichloro-benzylamino)-phenyl]-isoxazol-5-ylmethyl ester] | 60% |  |
| CCOC(=O)COc1ccc(-c2cc(COC(N)=O)on2)cc1 [Example 47, [4-(5-carbamoyloxymethyl-isoxazol-3-yl)-phenoxy]-acetic acid ethyl ester] |  | inhibition at 0.01 µM [2]: 41.2% |
| NC(=O)OC1CCN(Cc2cc(-c3ccc(OCc4ccccc4)cc3)no2)CC1 [Example 138, Carbamic acid 1-[3-(4-benzyloxy-phenyl)-isoxazol-5-ylmethyl]-piperidin-4-yl ester] | 39.1% |  |
| NC(=O)OCc1cc(-c2ccc(NCc3ccccc3F)cc2)no1 [Example 78, Carbamic acid 3-[4-(2-fluoro-benzylamino)-phenyl]-isoxazol-5-ylmethyl ester] | 84.7% |  |
| CCCCCOc1ccc(-c2cc(COC(N)=O)on2)cc1 [Example 44, carbamic acid 3-(4-pentoxy-phenyl)-isoxazol-5-ylmethyl ester] |  | inhibition at 0.01 µM [2]: 74.3% |
| Cc1nccn1Cc1cc(-c2ccc(OCc3ccccc3)cc2)no1 [Example 140, 3-(4-benzyloxy-phenyl)-5-(2-methyl-imidazol-1-ylmethyl)-isoxazole] | 91.7% |  |
| OCCNCc1cc(-c2ccc(OCc3ccccc3)cc2)no1 [Example 168, 2-{[3-(4-benzyloxy-phenyl)-isoxazol-5-ylmethyl]-amino}-ethanol] | 44.7% |  |
| NC(=O)OCc1cc(-c2ccc(NCc3cccc(C(F)(F)F)c3)cc2)no1 [Example 96, Carbamic acid 3-[4-(3-trifluoromethyl-benzylamino)-phenyl]-isoxazol-5-ylmethyl ester] | 40.9% |  |
| 3-[4-(4-methyl-benzyloxy)-phenyl]-isoxazol-5-ylmethyl ester [Example 28] |  | Inhibitory effects (%) on the activity of MAO-B ([2]; treatment concentration 10 nM): 87.4% |
| NC(=O)OCc1cc(-c2ccc(OCc3ccccc3Cl)cc2)no1 [Example 21, carbamic acid 3-[4-(2-chloro-benzyloxy)-phenyl]-isoxazol-5-ylmethyl ester] | 92.9% |  |
